Results on 19 compounds are retold here after patent US20230365592A1 (Agios Pharmaceuticals, Inc., priority 2022, published 2023).

The structures appear in SMILES notation.

This test addresses T1, human PAH with the R408W mutation (Homo sapiens, UniProt P00439, R408W).
T1 construct: expressed in transfected cells
T1 sequence (P00439 1-452 R408W): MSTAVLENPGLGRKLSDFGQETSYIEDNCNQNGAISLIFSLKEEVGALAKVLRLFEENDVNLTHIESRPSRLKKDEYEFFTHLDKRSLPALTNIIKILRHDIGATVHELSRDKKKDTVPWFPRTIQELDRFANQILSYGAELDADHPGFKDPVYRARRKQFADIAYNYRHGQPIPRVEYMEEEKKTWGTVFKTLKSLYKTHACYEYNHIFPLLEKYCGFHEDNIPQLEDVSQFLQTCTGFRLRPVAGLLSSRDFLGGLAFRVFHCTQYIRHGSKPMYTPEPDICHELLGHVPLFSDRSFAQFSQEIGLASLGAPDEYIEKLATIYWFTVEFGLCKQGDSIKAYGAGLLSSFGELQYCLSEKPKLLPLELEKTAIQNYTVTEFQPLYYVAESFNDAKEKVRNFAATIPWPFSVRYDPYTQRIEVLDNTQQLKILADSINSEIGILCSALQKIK
Briefly: Cell Based Phenylalanine Flux Assay.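 Further: after compound treatment, cells received sepiapterin plus isotope-labelled Phenylalanine for 4 hours, then labelled Tyrosine in the medium was quantified, 10-point 2-fold dilution series run in duplicate.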 The conditions noted are these: A375 cells expressing human PAH R408W; 24 hrs compound incubation; 13C-Tyrosine by LC-MS; average where tested multiple times; read-out: AC50.
Consider `CC(C)c1cccn2nc([C@@H]3c4nc[nH]c4CCN3C(=O)c3nnc(-c4ccccn4)o3)cc12` [Example 1905, (S)-(4-(4-isopropylpyrazolo[1,5-a]pyridin-2-yl)-1,4,6,7-tetrahydro-5H-imidazo[4,5-c]pyridin-5-yl)(5-(pyridin-2-yl)-1,3,4-oxadiazol-2-yl)methanone], for which the AC50 was less than 0.5 µM.

Consider `CC(C)c1cccn2nc([C@H]3c4nc[nH]c4CCN3C(=O)c3nnc(-c4ncccc4F)o3)cc12` [Example 1907, (R)-(5-(3-fluoropyridin-2-yl)-1,3,4-oxadiazol-2-yl)(4-(4-isopropylpyrazolo[1,5-a]pyridin-2-yl)-1,4,6,7-tetrahydro-5H-imidazo[4,5-c]pyridin-5-yl)methanone], for which the AC50 is greater than 5 µM.

`O=C(c1nnc(C2CC2)o1)N1CCc2[nH]cnc2[C@H]1c1cc2c(Br)cccn2n1` [Example 1908, (S)-(4-(4-bromopyrazolo[1,5-a]pyridin-2-yl)-1,4,6,7-tetrahydro-5H-imidazo[4,5-c]pyridin-5-yl)(5-cyclopropyl-1,3,4-oxadiazol-2-yl)methanone]: the AC50 was less than 0.5 µM.

On to `O=C(c1nnc(-c2ccccn2)o1)N1CCc2[nH]cnc2[C@H]1c1cc2c(Br)cccn2n1` [Example 1911, (S)-(4-(4-bromopyrazolo[1,5-a]pyridin-2-yl)-1,4,6,7-tetrahydro-5H-imidazo[4,5-c]pyridin-5-yl)(5-(pyridin-2-yl)-1,3,4-oxadiazol-2-yl)methanone], for which the AC50 is less than 0.5 µM.

Turning to `FC(F)(F)c1ccc(N2CCc3[nH]cnc3[C@H]2c2cc3ccccn3n2)nc1` [Example 1914, (S)-4-(pyrazolo[1,5-a]pyridin-2-yl)-5-(5-(trifluoromethyl)pyridin-2-yl)-4,5,6,7-tetrahydro-1H-imidazo[4,5-c]pyridine], the AC50 was less than 0.5 µM.

Take `FC(F)(F)c1ccc(N2CCc3[nH]cnc3[C@@H]2c2cc3ccccn3n2)nc1` [Example 1915, (R)-4-(pyrazolo[1,5-a]pyridin-2-yl)-5-(5-(trifluoromethyl)pyridin-2-yl)-4,5,6,7-tetrahydro-1H-imidazo[4,5-c]pyridine]: the half-maximal activity concentration (AC50) was greater than 5 µM.

With `FC(F)c1cccn2nc([C@@H]3c4nc[nH]c4CCN3c3ccc(C(F)(F)F)cn3)cc12` [Example 1916, (S)-4-(4-(difluoromethyl)pyrazolo[1,5-a]pyridin-2-yl)-5-(5-(trifluoromethyl)pyridin-2-yl)-4,5,6,7-tetrahydro-1H-imidazo[4,5-c]pyridine], the half-maximal activity concentration (AC50) was less than 0.5 µM.

Turning to `FC(F)c1cccn2nc([C@H]3c4nc[nH]c4CCN3c3ccc(C(F)(F)F)cn3)cc12` [Example 1917, (R)-4-(4-(difluoromethyl)pyrazolo[1,5-a]pyridin-2-yl)-5-(5-(trifluoromethyl)pyridin-2-yl)-4,5,6,7-tetrahydro-1H-imidazo[4,5-c]pyridine], the AC50 was greater than 5 µM.

As for `Cc1cccn2nc([C@@H]3c4nc[nH]c4CCN3C(=O)c3cnc(C4CC4)o3)cc12` [Example 1918, (S)-(2-cyclopropyloxazol-5-yl)(4-(4-methylpyrazolo[1,5-a]pyridin-2-yl)-1,4,6,7-tetrahydro-5H-imidazo[4,5-c]pyridin-5-yl)methanone], the AC50 was in the range of 0.5 to 1 µM.

Take `CCc1cccn2nc([C@@H]3c4nc[nH]c4CCN3C(=O)c3nnc(C(C)(C)F)o3)cc12` [Example 1922, (S)-(4-(4-ethylpyrazolo[1,5-a]pyridin-2-yl)-1,4,6,7-tetrahydro-5H-imidazo[4,5-c]pyridin-5-yl)(5-(2-fluoropropan-2-yl)-1,3,4-oxadiazol-2-yl)methanone]: the AC50 was less than 0.5 µM.

Regarding `CCc1cccn2nc([C@H]3c4nc[nH]c4CCN3C(=O)c3nnc(-c4cnn(C)c4)o3)cc12` [Example 1925, (R)-(4-(4-ethylpyrazolo[1,5-a]pyridin-2-yl)-1,4,6,7-tetrahydro-5H-imidazo[4,5-c]pyridin-5-yl)(5-(1-methyl-1H-pyrazol-4-yl)-1,3,4-oxadiazol-2-yl)methanone], the AC50 is greater than 5 µM.

For the compound `CCc1cccn2nc([C@H]3c4nc[nH]c4CCN3C(=O)c3nnc(-c4ccn(C)n4)o3)cc12` [Example 1926, (R)-(4-(4-ethylpyrazolo[1,5-a]pyridin-2-yl)-1,4,6,7-tetrahydro-5H-imidazo[4,5-c]pyridin-5-yl)(5-(1-methyl-1H-pyrazol-3-yl)-1,3,4-oxadiazol-2-yl)methanone], the concentration at half-maximal activity (AC50) was greater than 5 µM.

`O=C(c1nnc(-c2cnn(C(F)(F)F)c2)o1)N1CCc2[nH]cnc2[C@H]1c1cc2c(C3CC3)cccn2n1` [Example 1928, (S)-(4-(4-cyclopropylpyrazolo[1,5-a]pyridin-2-yl)-1,4,6,7-tetrahydro-5H-imidazo[4,5-c]pyridin-5-yl)(5-(1-(trifluoromethyl)-1H-pyrazol-4-yl)-1,3,4-oxadiazol-2-yl)methanone]: the AC50 fell in the range of 0.5 to 1 µM.

Turning to `O=C(c1nnc(-c2ccn(C(F)F)n2)o1)N1CCc2[nH]cnc2[C@H]1c1cc2c(C3CC3)cccn2n1` [Example 1930, (S)-(4-(4-cyclopropylpyrazolo[1,5-a]pyridin-2-yl)-1,4,6,7-tetrahydro-5H-imidazo[4,5-c]pyridin-5-yl)(5-(1-(difluoromethyl)-1H-pyrazol-3-yl)-1,3,4-oxadiazol-2-yl)methanone], the AC50 was less than 0.5 µM.

With `O=C(c1nnc(-c2ccn(C(F)F)n2)o1)N1CCc2[nH]cnc2[C@@H]1c1cc2c(C3CC3)cccn2n1` [Example 1931, (R)-(4-(4-cyclopropylpyrazolo[1,5-a]pyridin-2-yl)-1,4,6,7-tetrahydro-5H-imidazo[4,5-c]pyridin-5-yl)(5-(1-(difluoromethyl)-1H-pyrazol-3-yl)-1,3,4-oxadiazol-2-yl)methanone], the AC50 is greater than 5 µM.

Regarding `Cc1cc(-c2nnc(C(=O)N3CCc4[nH]cnc4[C@@H]3c3cc4c(C5CC5)cccn4n3)o2)nn1C` [Example 1932, (R)-(4-(4-cyclopropylpyrazolo[1,5-a]pyridin-2-yl)-1,4,6,7-tetrahydro-5H-imidazo[4,5-c]pyridin-5-yl)(5-(1,5-dimethyl-1H-pyrazol-3-yl)-1,3,4-oxadiazol-2-yl)methanone], the concentration at half-maximal activity (AC50) was greater than 5 µM.

On to `Cc1cc(-c2nnc(C(=O)N3CCc4[nH]cnc4[C@H]3c3cc4c(C5CC5)cccn4n3)o2)nn1C` [Example 1933, (S)-(4-(4-cyclopropylpyrazolo[1,5-a]pyridin-2-yl)-1,4,6,7-tetrahydro-5H-imidazo[4,5-c]pyridin-5-yl)(5-(1,5-dimethyl-1H-pyrazol-3-yl)-1,3,4-oxadiazol-2-yl)methanone], for which the concentration at half-maximal activity (AC50) lay within 0.5 to 1 µM.

`CC(C)c1cccn2nc([C@@H]3c4nc[nH]c4CCN3C(=O)c3nnc(-c4cnccn4)o3)cc12` [Example 1934, (S)-(4-(4-isopropylpyrazolo[1,5-a]pyridin-2-yl)-1,4,6,7-tetrahydro-5H-imidazo[4,5-c]pyridin-5-yl)(5-(pyrazin-2-yl)-1,3,4-oxadiazol-2-yl)methanone]: the AC50 is less than 0.5 µM.

Regarding `CC(C)c1cccn2nc([C@H]3c4nc[nH]c4CCN3C(=O)c3nnc(-c4cnn(C(F)F)c4)o3)cc12` [Example 1937, (R)-(5-(1-(difluoromethyl)-1H-pyrazol-4-yl)-1,3,4-oxadiazol-2-yl)(4-(4-isopropylpyrazolo[1,5-a]pyridin-2-yl)-1,4,6,7-tetrahydro-5H-imidazo[4,5-c]pyridin-5-yl)methanone], the half-maximal activity concentration (AC50) fell in the range of 1 to 5 µM.
